Measurements published in publication PMC5985520 (Molecular bioSystems, 2009).
Like-named read-outs stand apart in the source and are kept apart here.

Biological target: C2 domain of PKCα (Homo sapiens, UniProt P17252)
Test: SPR equilibrium binding of PKCα-C2 to lipid vesicles containing PA derivatives

## CCCCCCCC/C=C\CCCCCCCC(=O)O[C@H](COC(=O)CCCCCCCCCCCCCCC)COP(=O)(O)O [POPA, 1-palmitoyl-2-oleoyl-sn-glycero-3-phosphatidic acid]
read-out: Kd (dissociation constant for binding of PKCα-C2 to vesicles containing PA derivative), POPC:POPE:PA (40:40:20) vesicles, 20 mol% PA, L1 chip, 25°C, 25 mM Tris HCl pH 7.4, 150 mM NaCl, 1 mM CaCl2, 1 mM DTT
  Kd: 440 ± 50 nM
read-out: Kd (dissociation constant for binding of PKCα-C2 to vesicles containing PA derivative), POPC:POPE:PA (55:40:5) vesicles, 5 mol% PA, L1 chip, 25°C, 25 mM Tris HCl pH 7.4, 150 mM NaCl, 1 mM CaCl2, 1 mM DTT
  Kd: 490 ± 90 nM
